Experimental data as given in patent US6492434B1, “Methods for inhibiting skin ulceration by use of cyanoacrylate adhesives” (Flowers PArk Ltd., priority 1995, dated 2002).

Tested on: decubitus ulcers
Assay: Evaluation of n-butyl cyanoacrylate adhesive on inhibition of decubitus ulcers in 17 adult nursing home patients
Type: in vivo, human
Protocol: An evaluation of the effect of n-butyl cyanoacrylate adhesive on the inhibition of decubitus ulcers in 17 adult patients located in nine different nursing homes was conducted. In this example, 17 patients were selected based on a history of recurring decubitus ulcer formation or, based on medical evaluation, were deemed to be at high risk of developing decubitus ulcers. A prophylactic treatment regimen was then employed on these patients which regimen consisted of using conventional pressure ulcer preventative practices primarily involving periodic rotation of the patient as well as application of an n-butyl cyanoacrylate adhesive composition onto the intact skin areas which appeared likely to develop pressure ulcers by virtue of irritation and reddening of the skin or unbroken blister formation which is classified as a stage I decubitus ulcer or by application of the n-butyl cyanoacrylate composition onto intact skin adjacent to type II decubitus ulcers. Application of n-butyl cyanoacrylate consisted of application of about 1-5 drops of the n-butyl cyanoacrylate composition onto the surface skin area prone to ulceration wherein each drop corresponds to about 0.03 ml of cyanoacrylate.
The specific amount of n-butyl cyanoacrylate adhesive and point of application of the adhesive for each patient are set forth in the following Table I:
After application, the cyanoacrylate adhesive was allowed to form a polymeric film and, on average, reapplication of the adhesive was conducted every 24 hours until the evaluation was completed.

## C=C(C#N)C(=O)OCCCC [n-butyl cyanoacrylate adhesive, n-butyl-2-cyanoacrylate]
All patients treated in skin areas adjacent to stage II decubitus ulcer, plus conventional preventative practices
  expansion of stage II decubitus ulcer to adjacent skin areas: minimal expansion of the ulcer
All patients with redness/irritation or blistering (stage I) of intact skin, plus conventional pressure ulcer preventative practices
  progression to stage II decubitus ulcer formation (broken skin): did not progress to stage II decubitus ulcer formation
Patient 1, heel, redness 3 cm, 2 drops, reapplied about every 24 h, plus conventional preventative practices
  RESULT: NO BREAKDOWN OF SKIN ON HEEL
Patient 2, heel, redness 3 cm, 2 drops, reapplied about every 24 h, plus conventional practices
  RESULT: LESS PERSPIRATION AND NO IRRITATION
Patient 3, heels (2), blister (Stage I) 3-4 cm, 2 drops, reapplied about every 24 h, plus conventional practices
  RESULT: NO BREAKDOWN OF BLISTER TO STAGE II
Patient 4, heels (2) and elbows (2), redness 3-5 cm, 2 drops, reapplied about every 24 h, plus conventional practices
  RESULT: NO SKIN BREAKDOWN ON HEELS OR ELBOWS
Patient 5, cheek, redness ½-3 in, 2 drops, reapplied about every 24 h, plus conventional practices
  RESULT: NO IRRITATION DEVELOPED
Patient 6, lower leg, bruise 2-3 in, 4-5 drops, reapplied about every 24 h, plus conventional practices, listed as N-BUTYL CYANOACRYLATE ADHESIVES
  RESULT: NO SKIN BREAKDOWN
Patient 7, shoulder, bony prominence 3-4 cm, 3-4 drops, reapplied about every 24 h, plus conventional practices, listed as N-BUTYL CYANOACRYLATE ADHESIVES
  RESULT: SKIN DID NOT BREAKDOWN
Patient 8, hip, bony prominence 3-4 cm, 3-4 drops, reapplied about every 24 h, plus conventional practices
  RESULT: NO SKIN BREAKDOWN
Patient 9, heels (2), redness 5 cm, 1 drop, reapplied about every 24 h, plus conventional practices
  RESULT: NO IRRITATION/REDDENING LEFT
Patient 10, hip, blister (Stage I) 3-4 cm, 2 drops, treatment stopped
  RESULT: WARMING SENSATION UPON APPLICATION -
Patient 11, top of foot, redness 2-5 cm, 1 drop, reapplied about every 24 h, plus conventional practices
  RESULT: NO IRRITATION/REDDENlNG LEFT
Patient 12, heel, redness (scabbed over - healed stage II) 6-8 cm, 3 drops, reapplied about every 24 h, plus conventional practices
  RESULT: REDNESS HEALED UP
Patient 13, knees & heels, redness 2.5 cm, 3 drops, patient passed away due to other conditions
  RESULT: IRRITATION IMPROVED BUT PATIENT
Patient 14, heel, skin redness around Stage II ulcer 2.5 cm, 3 drops, reapplied about every 24 h, plus conventional practices
  RESULT: NO IRRITATION EVIDENT - HEELS ALMOST HEALED
Patient 15, heels (2), redness 2.5 cm, 3 drops, reapplied about every 24 h, plus conventional practices
  RESULT: PATIENT'S HEELS LOOK BETTER,
Patient 16, hip, redness (healed Stage II ulcer) 2 cm, 2-3 drops, reapplied about every 24 h, plus conventional practices
  RESULT: NO FURTHER BREAKDOWN, REDDENING STILL
